Each structure is given as a SMILES string. Calls of active or inactive are those of the source.

The AC50 is the midpoint of the concentration-response curve, whichever way the signal moves.

Assay [1] addresses Cytochrome P450 2D6 (Homo sapiens, UniProt P10635).
Assay [2] has as its target Cytochrome P450 2C9 (Homo sapiens, UniProt P11712).
In assay [3] the target is Cytochrome P450 2C19 (Homo sapiens, UniProt P33261). Description: Cytochrome panel assay with activity outcomes. Panel member name: p450-cyp2c19 Compounds with AC50 equal or less than 10 uM are considered active. The class given is functional. The following applies: read-out: AC50.
Assay [4] deals with T1, Heat shock factor protein 1 (Mus musculus, UniProt P38532).
T1 sequence (P38532 whole entry): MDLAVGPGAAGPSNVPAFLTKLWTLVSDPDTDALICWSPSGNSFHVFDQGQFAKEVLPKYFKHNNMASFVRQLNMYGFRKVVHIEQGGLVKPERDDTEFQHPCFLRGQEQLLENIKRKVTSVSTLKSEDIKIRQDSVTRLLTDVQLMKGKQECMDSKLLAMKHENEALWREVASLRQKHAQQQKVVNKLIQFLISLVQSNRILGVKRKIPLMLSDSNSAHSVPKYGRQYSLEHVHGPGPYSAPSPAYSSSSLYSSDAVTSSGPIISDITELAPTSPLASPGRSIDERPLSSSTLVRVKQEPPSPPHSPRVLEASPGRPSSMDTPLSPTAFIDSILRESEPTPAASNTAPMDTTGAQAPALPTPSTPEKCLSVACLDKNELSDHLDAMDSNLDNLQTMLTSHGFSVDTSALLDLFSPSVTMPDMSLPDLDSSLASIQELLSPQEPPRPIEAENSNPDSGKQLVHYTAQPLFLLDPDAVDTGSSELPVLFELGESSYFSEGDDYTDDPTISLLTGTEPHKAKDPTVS
Description: inhibition of MG132-induced HSE-luciferase signal, confirmation, cell-based, NIH3T3, luminescence, dose retest (AID 2382).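 Further: NIH3T3 fibroblasts with HSF1-driven luciferase reporter stressed by proteasome inhibitor MG132; luminescence from HSF1-driven luciferase expression after 8 hours of MG132 stress.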 The assay is classed as functional.

For assay [5], the target named is T2, Protein RecA (Mycobacterium tuberculosis, UniProt P9WHJ3).
T2 sequence (P9WHJ3 whole entry): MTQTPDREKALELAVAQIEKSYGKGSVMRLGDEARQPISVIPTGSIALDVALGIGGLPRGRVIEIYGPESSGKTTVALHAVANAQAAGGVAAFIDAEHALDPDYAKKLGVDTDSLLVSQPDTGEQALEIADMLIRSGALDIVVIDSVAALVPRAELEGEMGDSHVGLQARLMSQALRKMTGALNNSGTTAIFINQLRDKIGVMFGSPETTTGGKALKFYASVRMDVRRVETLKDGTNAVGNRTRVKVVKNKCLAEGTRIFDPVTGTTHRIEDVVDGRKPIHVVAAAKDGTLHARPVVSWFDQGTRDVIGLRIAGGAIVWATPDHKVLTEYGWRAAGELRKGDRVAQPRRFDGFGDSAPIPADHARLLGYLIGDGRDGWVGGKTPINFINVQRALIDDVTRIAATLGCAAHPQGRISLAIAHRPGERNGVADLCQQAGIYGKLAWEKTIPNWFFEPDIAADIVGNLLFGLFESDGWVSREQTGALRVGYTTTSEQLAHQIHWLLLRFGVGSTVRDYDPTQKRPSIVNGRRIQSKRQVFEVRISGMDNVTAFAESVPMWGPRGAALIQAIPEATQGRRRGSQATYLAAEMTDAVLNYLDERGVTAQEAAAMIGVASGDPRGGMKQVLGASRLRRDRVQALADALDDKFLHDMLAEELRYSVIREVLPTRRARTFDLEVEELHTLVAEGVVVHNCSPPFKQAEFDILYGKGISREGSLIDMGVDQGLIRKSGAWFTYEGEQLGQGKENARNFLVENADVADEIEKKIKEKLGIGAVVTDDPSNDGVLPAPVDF
As to the kind of experiment: Fluorescence Cell-Free Homogeneous Dose Retest to Identify Inhibitors of RecA-Intein Splicing Activity. [Related pubchem assays (depositor defined):AID2097, AID2223, AID489010, AID492950]. The assay is classed as functional.

For assay [6], the target named is T3, Replicative DNA helicase DnaB (Mycobacterium tuberculosis, UniProt P9WMR3).
T3 sequence (P9WMR3 whole entry): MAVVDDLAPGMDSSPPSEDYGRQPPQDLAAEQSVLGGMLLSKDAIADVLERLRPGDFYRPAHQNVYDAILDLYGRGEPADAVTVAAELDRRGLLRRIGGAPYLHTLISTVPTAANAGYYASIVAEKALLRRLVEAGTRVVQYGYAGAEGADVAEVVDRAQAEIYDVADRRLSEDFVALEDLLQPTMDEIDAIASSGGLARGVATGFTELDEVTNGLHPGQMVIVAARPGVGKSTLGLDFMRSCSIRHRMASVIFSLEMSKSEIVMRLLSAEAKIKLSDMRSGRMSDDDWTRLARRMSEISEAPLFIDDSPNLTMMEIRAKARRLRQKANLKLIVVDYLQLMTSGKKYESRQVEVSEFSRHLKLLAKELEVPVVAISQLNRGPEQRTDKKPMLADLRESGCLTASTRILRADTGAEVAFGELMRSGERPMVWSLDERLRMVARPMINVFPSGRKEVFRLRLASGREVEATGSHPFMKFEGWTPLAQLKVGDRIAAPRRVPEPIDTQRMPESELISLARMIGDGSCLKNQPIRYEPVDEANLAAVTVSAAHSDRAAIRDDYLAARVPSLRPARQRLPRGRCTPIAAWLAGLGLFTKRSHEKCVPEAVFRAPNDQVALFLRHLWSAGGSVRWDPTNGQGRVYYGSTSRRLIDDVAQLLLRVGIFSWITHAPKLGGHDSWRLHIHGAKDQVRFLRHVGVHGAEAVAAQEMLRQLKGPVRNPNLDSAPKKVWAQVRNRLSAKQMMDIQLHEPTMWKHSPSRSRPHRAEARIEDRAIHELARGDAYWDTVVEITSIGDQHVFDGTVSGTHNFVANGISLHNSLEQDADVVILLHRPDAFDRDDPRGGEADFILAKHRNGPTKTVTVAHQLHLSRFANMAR
Description: DnaB intein splicing inhibitors, dose response, biochemical, cell-free fluorescence (AID 449749). The class given is functional.

In assay [7] the target is Cytochrome P450 3A4 (Homo sapiens, UniProt P08684).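 Further: CYP3A4 tested as one member of a cytochrome P450 panel screen.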
Assay [8] has as its target T4, Corticotropin-releasing factor receptor 2/Corticotropin-releasing factor-binding protein (Homo sapiens, UniProt P24387+Q13324).
T4 sequence (Q13324 whole entry): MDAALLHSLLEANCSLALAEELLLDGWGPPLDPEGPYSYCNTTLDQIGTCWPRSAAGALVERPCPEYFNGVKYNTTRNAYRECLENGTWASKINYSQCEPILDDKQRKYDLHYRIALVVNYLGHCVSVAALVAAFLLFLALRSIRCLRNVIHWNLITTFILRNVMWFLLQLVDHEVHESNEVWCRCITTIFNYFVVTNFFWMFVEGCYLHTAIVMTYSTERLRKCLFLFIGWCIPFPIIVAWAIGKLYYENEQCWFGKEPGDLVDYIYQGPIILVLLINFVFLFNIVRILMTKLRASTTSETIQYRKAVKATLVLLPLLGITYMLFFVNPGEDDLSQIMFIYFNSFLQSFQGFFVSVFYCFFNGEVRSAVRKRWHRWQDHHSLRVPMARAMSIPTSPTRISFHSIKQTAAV
T4 sequence (P24387 whole entry): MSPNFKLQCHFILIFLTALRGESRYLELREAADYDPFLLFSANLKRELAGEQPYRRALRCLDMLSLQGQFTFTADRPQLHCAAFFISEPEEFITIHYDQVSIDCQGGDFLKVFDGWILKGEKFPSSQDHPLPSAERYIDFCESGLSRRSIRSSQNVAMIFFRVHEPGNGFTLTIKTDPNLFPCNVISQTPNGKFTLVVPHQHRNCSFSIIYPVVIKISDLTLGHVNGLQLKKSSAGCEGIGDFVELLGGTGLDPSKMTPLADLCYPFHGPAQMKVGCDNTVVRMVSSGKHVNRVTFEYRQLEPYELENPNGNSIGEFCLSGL
Description: activators of CRF receptor 2 with binding protein – uHTS hits, confirmation (AID 602473). The assay is classed as functional. The following applies: read-out: EC50_Mean.

For assay [9], the system named is Streptococcus. As to the kind of experiment: Group A Streptococcus viability loss, dose response, counter-screen for streptokinase expression inhibitor project, luminescence, BacTiterGlo (AID 1915).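 Further: potency for reduction of bacterial viability or growth.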 The assay is classed as functional, organism-based.
In assay [10] the test system is Streptococcus sp. 'group A'. Description: growth inhibition of control SK(-) GAS strain, dose response, counter-screen for streptokinase expression inhibitor project, luminescence, kanamycin, BacTiterGlo, confirmation (AID 1900). The assay is classed as functional, organism-based.

Chain of Cytochrome P450 2D6 (P10635 whole entry): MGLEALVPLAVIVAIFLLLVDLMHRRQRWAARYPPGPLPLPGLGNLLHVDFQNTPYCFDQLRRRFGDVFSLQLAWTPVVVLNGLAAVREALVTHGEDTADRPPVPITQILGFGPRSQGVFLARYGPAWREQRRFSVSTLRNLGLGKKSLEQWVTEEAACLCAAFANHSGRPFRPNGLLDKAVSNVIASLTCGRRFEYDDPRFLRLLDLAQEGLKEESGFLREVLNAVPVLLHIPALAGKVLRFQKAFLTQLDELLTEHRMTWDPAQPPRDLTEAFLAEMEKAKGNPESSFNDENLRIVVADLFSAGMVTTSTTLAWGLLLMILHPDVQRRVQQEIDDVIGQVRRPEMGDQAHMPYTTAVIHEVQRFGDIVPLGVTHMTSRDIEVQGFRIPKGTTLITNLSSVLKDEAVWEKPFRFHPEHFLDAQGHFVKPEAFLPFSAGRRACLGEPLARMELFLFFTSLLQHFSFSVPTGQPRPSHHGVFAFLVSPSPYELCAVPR
Chain of Cytochrome P450 2C9 (P11712 whole entry): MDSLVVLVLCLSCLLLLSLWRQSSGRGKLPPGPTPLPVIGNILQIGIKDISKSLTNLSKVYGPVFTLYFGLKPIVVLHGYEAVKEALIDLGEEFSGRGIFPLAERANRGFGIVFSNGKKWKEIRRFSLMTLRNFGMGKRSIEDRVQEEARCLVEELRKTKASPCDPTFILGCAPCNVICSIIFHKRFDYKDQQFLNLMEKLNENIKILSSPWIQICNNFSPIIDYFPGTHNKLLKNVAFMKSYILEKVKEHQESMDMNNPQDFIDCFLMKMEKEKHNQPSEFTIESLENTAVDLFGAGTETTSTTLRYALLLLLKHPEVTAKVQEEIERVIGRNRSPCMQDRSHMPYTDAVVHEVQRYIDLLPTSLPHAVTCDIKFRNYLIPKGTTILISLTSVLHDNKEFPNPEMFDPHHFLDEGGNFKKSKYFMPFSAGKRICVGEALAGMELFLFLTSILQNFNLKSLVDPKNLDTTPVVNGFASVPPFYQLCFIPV
Chain of Cytochrome P450 3A4 (P08684 whole entry): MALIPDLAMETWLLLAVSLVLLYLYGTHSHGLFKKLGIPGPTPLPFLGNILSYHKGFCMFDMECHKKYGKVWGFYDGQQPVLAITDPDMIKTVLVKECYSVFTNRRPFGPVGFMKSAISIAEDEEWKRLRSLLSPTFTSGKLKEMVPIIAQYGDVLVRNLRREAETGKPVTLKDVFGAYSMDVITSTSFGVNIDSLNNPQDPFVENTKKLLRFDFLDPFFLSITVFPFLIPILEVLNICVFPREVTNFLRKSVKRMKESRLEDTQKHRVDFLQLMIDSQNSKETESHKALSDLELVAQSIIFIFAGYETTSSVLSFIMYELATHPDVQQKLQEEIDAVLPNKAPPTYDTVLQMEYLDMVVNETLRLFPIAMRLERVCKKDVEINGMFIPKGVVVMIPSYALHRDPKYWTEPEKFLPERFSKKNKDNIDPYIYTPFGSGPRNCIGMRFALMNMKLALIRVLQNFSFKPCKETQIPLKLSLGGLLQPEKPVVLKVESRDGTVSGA
Chain of Cytochrome P450 2C19 (P33261 whole entry): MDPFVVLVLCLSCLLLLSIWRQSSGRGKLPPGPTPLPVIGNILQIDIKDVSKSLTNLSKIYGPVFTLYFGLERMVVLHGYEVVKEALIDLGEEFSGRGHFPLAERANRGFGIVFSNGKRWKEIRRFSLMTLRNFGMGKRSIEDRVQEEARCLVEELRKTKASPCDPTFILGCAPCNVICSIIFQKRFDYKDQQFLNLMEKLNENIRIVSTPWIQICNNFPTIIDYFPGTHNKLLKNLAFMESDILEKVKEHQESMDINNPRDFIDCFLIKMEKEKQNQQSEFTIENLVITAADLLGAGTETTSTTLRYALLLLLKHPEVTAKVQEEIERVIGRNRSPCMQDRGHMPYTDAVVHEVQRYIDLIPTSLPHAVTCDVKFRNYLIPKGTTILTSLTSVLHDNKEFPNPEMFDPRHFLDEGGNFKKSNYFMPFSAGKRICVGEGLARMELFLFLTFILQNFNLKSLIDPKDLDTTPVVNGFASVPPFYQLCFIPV

On to `CCC(C)N1C(=O)C2C(C(=O)Nc3cccc(OC)c3)C3C=CC2(O3)C1C(=O)NC1CCCCC1C` (centres undefined), for which the figures for the concentration at half-maximal activity (AC50) in [1], in [2] and in assay [3] were 7.08 µM (inconclusive), 12.6 µM (inconclusive) and 28.2 µM (inconclusive), respectively.

With `Cn1c(=O)n(C)c2cc(NS(C)(=O)=O)ccc21`, in assay [4], the EC50 is reported as > 195 µM (not active). For `COc1ccccc1CN1CC(C(=O)NCCN2CCNC2=O)CCC1=O` (centres undefined), the EC50 in assay [4] is 9.48 µM (active). `O=C1CC(CC(=O)N/N=C/c2ccccc2[N+](=O)[O-])=NN1`: the EC50 in assay [5] was 1.85 µM (active). Besides, in [6], the concentration at half-maximal activity (AC50) is 2.19 µM (active). Regarding `COc1ccc(C(=O)N2CCC3(CC2)CN(c2ccncc2)C3)cc1`, the AC50 in [1] was 25.1 µM (inconclusive); in [2], 39.8 µM (inconclusive); in assay [7] it was 15.8 µM (inconclusive). For `CC(C)N=C(S)NC1(C)CCS(=O)(=O)C1` (centres undefined), in [5], the EC50 is > 380 µM (inactive). In assay [6], the AC50 was > 380 µM (inactive). For `C[C@]12c3[nH]c4ccccc4c3CCN1C(=O)C(CC(=O)NCC13C[C@H]4C[C@@H](C1)C[C@@H](C3)C4)C[C@@H]2C(=O)N1CCOCC1` (some centres undefined), the EC50 in [8] is > 53 µM (inactive). On to `COc1ccc(CC(NC(C)=O)C(=O)NC2CCN(C(=O)c3ccc(OC)c(OC)c3)CC2)cc1OC` (centres undefined), for which the EC50 in [4] is reported as > 195 µM (not active). For the compound `CC1=NN(c2ccccc2)C(=O)/C1=C\c1cn(CCC#N)nc1-c1ccc(Cl)cc1`, the EC50 in assay [5] was 2.77 µM (active). In addition, the AC50 in assay [6] is 3.78 µM (active). On to `FC(F)Oc1ccc(NC(S)=NNc2ccnc3cc(Cl)ccc23)cc1`, for which the EC50 in assay [4] is reported as > 195 µM (not active).

With `COCCN(C(S)=Nc1c(C)cccc1C)C(C)c1cccnc1` (centres undefined), in assay [4], the EC50 is > 195 µM (not active).

With `COc1cccc(/C=C(\C#N)c2nc3ccccc3[nH]2)c1OCC(=O)O`, the EC50 in assay [4] is reported as > 195 µM (not active).

Take `NC1=NN(c2cccc(C(=O)O)c2)C(=O)C1`: in assay [5], the EC50 is 23.7 µM (inconclusive). The AC50 in assay [6] was 20 µM (active). As to `O=C(Nc1cccc(S(=O)(=O)N2CCOCC2)c1)c1ccccn1`, in assay [4], the EC50 is given as > 195 µM (not active).

As for `CC(C(=O)NC1CC(C)(C)NC(C)(C)C1)c1ccc([N+](=O)[O-])cc1` (centres undefined), the EC50 in [4] was > 195 µM (not active). Regarding `Cc1ccc(S(=O)(=O)N2CCN(C(=O)c3ccccc3Cc3ccccc3)CC2)c(C)c1`, the EC50 in assay [5] is 208 µM (active). In [6], the AC50 is 2.54 µM (active). For `Cc1nn(C)c(Cl)c1CN1CCC(n2nccc2NC(=O)C2CCCC2)CC1`, in [4], the EC50 is > 195 µM (not active).

`COC(=O)[C@@H]1CC[C@H](C)[C@@H](c2ccc(C)cc2)N1C(=O)c1ccc(/C=N\O[C@@H](C)CN2CCCc3nc(C)c(C)cc32)cc1`: the AC50 in assay [1] was 6.31 µM (inconclusive); in assay [2] it was 3.16 µM (inconclusive); in assay [7], 3.98 µM (inconclusive). Take `Cc1n[nH]c2c1C(c1ccc3c(c1)OCO3)C(C#N)=C(N)O2` (centres undefined): in assay [5], the EC50 is 6.16 µM (active). Besides, the AC50 in assay [6] was 15.6 µM (active). Take `CN(CC(=O)Nc1cccc(F)c1)CC(=O)Nc1cccc(S(N)(=O)=O)c1`: the EC50 in assay [4] is recorded as > 195 µM (not active).

For `Cc1ccc(-c2csc(NC(=O)CSC3=NCCS3)n2)cc1`, in assay [5], the EC50 is 3.83 µM (active). Further, the half-maximal activity concentration (AC50) in assay [6] was 14.6 µM (active). Turning to `CN1C(=O)c2ccccc2Sc2ccc(C(=O)N3CCC4(CC3)OCCO4)cc21`, in assay [4], the EC50 is on record as > 195 µM (not active). In [7], the AC50 is 20 µM (inconclusive). As for `Nc1ccc(C#Cc2ccc3oc4ccccc4c(=O)c3c2)cc1`, the EC50 in assay [9] is 2.37 µM (active); in assay [10], 2.5 µM (active). On to `O=C(C1CCCC1)N1CCCC(Nc2ccc(F)cc2)C1` (centres undefined), for which, in [8], the EC50 is > 53 µM (inactive).

Regarding `CCCCn1c(N)c(N(CC(C)C)C(=O)c2cccc(S(=O)(=O)N3CCCCC3)c2)c(=O)[nH]c1=O`, in [4], the EC50 was > 195 µM (not active). Take `CCN(CC)S(=O)(=O)c1ccc(C)c(NC(=O)CNCc2ccccc2OC)c1`: the EC50 in assay [4] was > 195 µM (not active). On the same count and under the same terms, next, `CCN(C(=O)COC(=O)/C=C/c1ccccc1)C1CCCCC1`: > 195 µM (not active). Consider `Cc1ccc(-n2nc(C)c3c2OC(N)=C(C#N)C3c2ccccc2F)cc1` (centres undefined), for which the EC50 in [5] is 24 µM (inconclusive). The AC50 in assay [6] was 5.37 µM (active).

(Values after ChEMBL document CHEMBL1201862, “PubChem BioAssay data set” (2004).)
